From ChEMBL document CHEMBL1649234, “Antimicrobial activities of piperacillin-tazobactam against Haemophilus influenzae isolates, including beta-lactamase-negative ampicillin-resistant and beta-lactamase-positive amoxicillin-clavulanate-resistant isolates, and mutations in their quinolone resistance-determining regions” (2009)
Converted amounts (≈) assume the structure as drawn.

Key:
Haemophilus influenzae [1] = test: Antimicrobial activity against beta-lactamase positive ampicillin-resistant-Haemophilus influenzae gyrA Asp88Asn, parC Ser84Cys and parE Ala369Thr mutant gene by broth microdilution method
Haemophilus influenzae [2] = test: Antimicrobial activity against beta-lactamase positive ampicillin-resistant-Haemophilus influenzae gyrA Ser84Leu, parC Ser84Arg/Asn138Ser and parE Asp364Gly mutant gene by broth microdilution method
Haemophilus influenzae [3] = test: Antimicrobial activity against beta-lactamase positive (amoxicillin)-clavulanate-resistant Haemophilus influenzae harboring fst1 mutant gene and gyrA Ser84Leu/Asp88Gly, parC Glu88Lys and parE VAl392Ile/Asp420Asn mutant gene by broth microdilution method
Haemophilus influenzae [4] = test: Antimicrobial activity against beta-lactamase positive (amoxicillin)-clavulanate-resistant Haemophilus influenzae harboring fst1 mutant gene and gyrA Asp88Thr mutant gene by broth microdilution method
Haemophilus influenzae [5] = test: Antimicrobial activity against beta-lactamase positive (amoxicillin)-clavulanate-resistant Haemophilus influenzae harboring fst1 mutant gene and gyrA Ser84Leu and parE Ala369Thr mutant gene by broth microdilution method
Haemophilus influenzae [6] = test: Antimicrobial activity against beta-lactamase positive (amoxicillin)-clavulanate-resistant Haemophilus influenzae harboring fst1 mutant gene and gyrA Ser84Leu, parC Ser84Cys and parE Ala369Thr mutant gene by broth microdilution method
Haemophilus influenzae [7] = test: Antimicrobial activity against beta-lactamase negative ampicillin-resistant-Haemophilus influenzae harboring fst1 mutant gene and gyrA Asp88Thr and parC Glu88Lys mutant gene by broth microdilution method
Haemophilus influenzae [8] = test: Antimicrobial activity against beta-lactamase positive (amoxicillin)-clavulanate-resistant -Haemophilus influenzae harboring fst1 mutant gene and gyrA Ser84Leu, parC Ser84Cys and parE Asp364Thr mutant gene by broth microdilution method
Haemophilus influenzae [9] = test: Antimicrobial activity against beta-lactamase positive (amoxicillin)-clavulanate-resistant Haemophilus influenzae harboring fst1 mutant gene and gyrA Ser84Leu, parC Ser84Ile/Asn138Ser mutant gene by broth microdilution method
Haemophilus influenzae [10] = test: Antimicrobial activity against beta-lactamase negative ampicillin-resistant-Haemophilus influenzae harboring fst1 mutant gene and gyrA Ser84Leu mutant gene by broth microdilution method
Haemophilus influenzae [11] = test: Antimicrobial activity against beta-lactamase negative ampicillin-resistant-Haemophilus influenzae harboring fst1 mutant gene and gyrA Ser84Leu, parC Ser133Ala/Asn138Ser mutant gene by broth microdilution method
Haemophilus influenzae [12] = test: Antimicrobial activity against beta-lactamase negative ampicillin-susceptible-Haemophilus influenzae harboring gyrA Asp88Gly, gyrB Thr472Ile and parC Asp83Asn mutant gene by broth microdilution method
Haemophilus influenzae [13] = test: Antimicrobial activity against beta-lactamase negative ampicillin-resistant-Haemophilus influenzae harboring fst1 mutant gene and gyrA Ser84Leu, parC Asn138Ser and parE Ser474Asn mutant gene by broth microdilution method
Haemophilus influenzae [14] = test: Antimicrobial activity against beta-lactamase positive (amoxicillin)clavulanate-resistant Haemophilus influenzae by broth microdilution method; assay type: functional
Haemophilus influenzae [15] = test: Antimicrobial activity against beta-lactamase negative ampicillin-resistant Haemophilus influenzae assessed as susceptible isolates by broth microdilution method; assay type: functional
Haemophilus influenzae [16] = test: Antimicrobial activity against beta-lactamase negative ampicillin-resistant -Haemophilus influenzae by broth microdilution method; assay type: functional
Haemophilus influenzae [17] = test: Antimicrobial activity against beta-lactamase positive (amoxicillin)clavulanate-resistant Haemophilus influenzae assessed as susceptible isolates by broth microdilution method; assay type: functional
Haemophilus influenzae [18] = test: Antimicrobial activity against beta-lactamase positive (amoxicillin)clavulanate-resistant Haemophilus influenzae by broth microdilution method in presence of beta-lactamase inhibitor Tazobactam; assay type: functional
Haemophilus influenzae [19] = test: Antimicrobial activity against beta-lactamase negative ampicillin-resistant-Haemophilus influenzae harboring […] mutant gene by disk diffusion method in presence of beta-lactamase inhibitor Tazobactam; assay type: functional
Haemophilus influenzae [20] = test: Antimicrobial activity against beta-lactamase negative ampicillin-resistant Haemophilus influenzae by broth microdilution method in presence of beta-lactamase inhibitor Tazobactam; assay type: functional
Haemophilus influenzae [21] = test: Antimicrobial activity against beta-lactamase negative ampicillin-susceptible Haemophilus influenzae harboring […] mutant gene assessed as susceptible isolates by broth microdilution method in presence of beta-lactamase inhibitor Tazobactam; assay type: functional
Haemophilus influenzae [22] = test: Antimicrobial activity against beta-lactamase negative ampicillin-resistant Haemophilus influenzae assessed as susceptible isolates by broth microdilution method in presence of beta-lactamase inhibitor Tazobactam; assay type: functional
Haemophilus influenzae [23] = test: Antimicrobial activity against beta-lactamase negative […]-Haemophilus influenzae harboring […] mutant gene by disk diffusion method in presence of beta-lactamase inhibitor Tazobactam; assay type: functional
Haemophilus influenzae [24] = test: Antimicrobial activity against beta-lactamase negative ampicillin-susceptible Haemophilus influenzae harboring […] mutant gene by broth microdilution method in presence of beta-lactamase inhibitor Tazobactam; assay type: functional
Haemophilus influenzae [25] = test: Antimicrobial activity against beta-lactamase-positive ampicillin-resistant Haemophilus influenzae harboring […] mutant gene by broth microdilution method in presence of beta-lactamase inhibitor Tazobactam; assay type: functional
Haemophilus influenzae [26] = test: Antimicrobial activity against beta-lactamase-positive ampicillin-resistant Haemophilus influenzae harboring fst1 mutant gene assessed as susceptible isolates by broth microdilution method in presence of beta-lactamase inhibitor Tazobactam; assay type: functional
Haemophilus influenzae [27] = test: Antimicrobial activity against beta-lactamase positive (amoxicillin)clavulanate-resistant Haemophilus influenzae assessed as susceptible isolates by broth microdilution method in presence of beta-lactamase inhibitor Tazobactam; assay type: functional

What does the source list for O=C(O)c1cn(C2CC2)c2cc(N3CCNCC3)c(F)cc2c1=O [CIPROFLOXACIN]?
MIC (Haemophilus influenzae [1]): 0.25 µg/mL (≈ 0.754 µM); MIC (Haemophilus influenzae [2]): 0.25 µg/mL (≈ 0.754 µM); MIC (Haemophilus influenzae [3]): 16 µg/mL; MIC (Haemophilus influenzae [4]): 0.06 µg/mL; MIC (Haemophilus influenzae [5]): 0.06 µg/mL; MIC (Haemophilus influenzae [6]): 0.06 µg/mL; MIC (Haemophilus influenzae [7]): 0.06 µg/mL (≈ 0.181 µM); MIC (Haemophilus influenzae [8]): 0.25 µg/mL; MIC (Haemophilus influenzae [9]): 0.5 µg/mL; MIC (Haemophilus influenzae [10]): 0.06 µg/mL (≈ 0.181 µM); MIC (Haemophilus influenzae [11]): 0.06 µg/mL (≈ 0.181 µM); MIC (Haemophilus influenzae [12]): 0.25 µg/mL (≈ 0.754 µM); MIC (Haemophilus influenzae [13]): 0.06 µg/mL (≈ 0.181 µM)

With C[C@@H](O)[C@H]1C(=O)N2C(C(=O)O)=C(SCCNC=N)C[C@H]12 [IMIPENEM ANHYDROUS] as the compound, how does the MIC50 (Haemophilus influenzae [14]) read?
Its MIC50 is 2 µg/mL.

And the MIC90 (Haemophilus influenzae [14])?
The MIC90 was 2 µg/mL.

What about the Activity (Haemophilus influenzae [15]) of the same compound?
The Activity was 96%.

What about the MIC50 (Haemophilus influenzae [16]) of the same compound?
The MIC50 was 1 µg/mL (≈ 3.34 µM).

What about the MIC90 (Haemophilus influenzae [16]) of the same compound?
The MIC90 was 4 µg/mL (≈ 13.4 µM).

And the Activity (Haemophilus influenzae [17])?
Its Activity is 98%.

C[C@@H](O)[C@H]1C(=O)N2C(C(=O)O)=C(S[C@@H]3CN[C@H](C(=O)N(C)C)C3)[C@H](C)[C@H]12 [MEROPENEM] was tested. Which MIC50 (Haemophilus influenzae [14]) did it give?
Its MIC50 is 0.25 µg/mL.

And the MIC90 (Haemophilus influenzae [14])?
The MIC90 was 0.5 µg/mL.

And the Activity (Haemophilus influenzae [15])?
The Activity was 99%.

What about the MIC50 (Haemophilus influenzae [16]) of the same compound?
Its MIC50 is 0.25 µg/mL (≈ 0.652 µM).

And the MIC90 (Haemophilus influenzae [16])?
Its MIC90 is 0.5 µg/mL (≈ 1.3 µM).

What about the Activity (Haemophilus influenzae [17]) of the same compound?
Its Activity is 100%.

With CCN1CCN(C(=O)N[C@@H](C(=O)N[C@@H]2C(=O)N3[C@@H]2SC(C)(C)[C@@H]3C(=O)O)c2ccccc2)C(=O)C1=O [PIPERACILLIN] as the compound, how does the MIC50 (Haemophilus influenzae [18]) read?
Its MIC50 is 0.12 µg/mL.

What about the MIC90 (Haemophilus influenzae [18]) of the same compound?
The MIC90 was 0.25 µg/mL.

What about the “inhibition zone (IZ)” value (Haemophilus influenzae [19]) of the same compound?
The value was “>=21 mm”.

What about the MIC50 (Haemophilus influenzae [20]) of the same compound?
Its MIC50 is 0.06 µg/mL.

What about the MIC90 (Haemophilus influenzae [20]) of the same compound?
The MIC90 was 0.12 µg/mL.

And the Activity (Haemophilus influenzae [21])?
Its Activity is 100%.

What about the Activity (Haemophilus influenzae [22]) of the same compound?
Its Activity is 100%.

And the “inhibition zone (IZ)” value (Haemophilus influenzae [23])?
Its value is “>=21 mm”.

And the MIC50 (Haemophilus influenzae [14])?
Its MIC50 is 32 µg/mL.

What about the MIC90 (Haemophilus influenzae [14]) of the same compound?
Its MIC90 is ≥ 64 µg/mL.

And the MIC (Haemophilus influenzae [24])?
The MIC was ≤ 0.03 µg/mL.

And the MIC50 (Haemophilus influenzae [24])?
The MIC50 was ≤ 0.03 µg/mL.

What about the MIC90 (Haemophilus influenzae [24]) of the same compound?
Its MIC90 is 0.06 µg/mL.

What about the MIC (Haemophilus influenzae [25]) of the same compound?
Its MIC is ≤ 0.03 µg/mL.

And the MIC50 (Haemophilus influenzae [25])?
The MIC50 was ≤ 0.03 µg/mL.

What about the MIC90 (Haemophilus influenzae [25]) of the same compound?
Its MIC90 is 0.06 µg/mL.

What about the MIC50 (Haemophilus influenzae [16]) of the same compound?
The MIC50 was 0.12 µg/mL (≈ 0.232 µM).

And the MIC90 (Haemophilus influenzae [16])?
The MIC90 was 0.25 µg/mL (≈ 0.483 µM).

What about the Activity (Haemophilus influenzae [26]) of the same compound?
The Activity was 100%.

And the Activity (Haemophilus influenzae [27])?
Its Activity is 100%.
